Results reported in patent US20230112279A1, “DETERGENT COMPOSITION” (Conopco, Inc., d/b/a UNILEVER, priority 2020, published 2023).

Key:
Lipex 100 L lipase [1] = molecular target: T1, Lipex 100 L lipase (Thermomyces lanuginosus, UniProt O59952, N255R/T253R); assay: Biochemical determination of lipase activity (4-nitrophenyl ester hydrolysis, 405 nm) with Lipex 100 L; settings: for activation of Lipex 100 L: saponin at fixed concentration of 10 μM, FIG. 3; for % increase in Lipase activity in the presence of escin saponin compared to absence of saponin: Lipex 100L; for Lipex 100L activity in the presence of saponins: 10 ng/mL lipase
T1 construct: purchased Novozymes
Experimental: (§1) Lipase activity was determined by a colorimetric method using 4-nitrophenyl-valerate (C5) and 4-nitrophenyl-dodecanoate (C12) as substrates. 4-nitrophenyl-dodecanoate (25 mg) or 4-nitrophenyl-valerate (18 mg) were dissolved in 10 mL solvent (methanol) to prepare 8 mM stock solutions. 1 mL of stock solution was added in 7 mL of acidified water (pH 4.5), to give a final concentration of 1 mM (the substrate). In 96-well microtitre plates the following reagents were added: 60 μL dH2O, 80 μL Tris-HCl buffer (pH 8.5, 50 mM), 20 μL of diluted enzyme solution, 20 μL of saponin 10× concentrated stock solution. 20 μL substrate was then added to start the reaction. For zero enzyme controls, enzyme solution was replaced with H2O. Following the addition of substrate, the release of product (4-nitrophenol) was monitored at 405 nm for 15 min at ambient temperature in a Varioskan plate reader.
(§2) The dose response of various lipases to saponins were tested in a biochemical assay. The concentration of lipase in these experiments was 10 μg/L. This level was chosen to ensure that substrate hydrolysis and resultant increase in absorbance measurements falls within the sensitivity of the spectrophotometer. […] In all cases, the lipase activity increased as the escin concentration reached above a threshold value, which varied according to the enzyme in question, but was in the region 0.01 (Resinase HT) to 0.10 μM (Lipex, 100 L, Lipex Evity and Novozyme 51032).
Activation of a single lipase (Lipex 100 L) by a variety of natural saponins and saponins derived through metabolic engineering were tested using the biochemical assay. The unglycosylated terpenoid, oleanolic acid (OA), was also tested to determine whether lipase activation was a result of the terpenoid moiety or required the terpenoid scaffold to be glycosylated. To compare this directly, the enzymes activation by saponins comprising oleanolic acid glycosylated with 3 or 4 glycoside residues at the C28 position of the triterpenoid (oleanolic acid-28-O-triglycoside (OA-28 x3Gly) and oleanolic acid-28-O-tetraglycoside (OA-28 x4Gly), were compared directly to the activation achieved by oleanolic acid.
Biochemical assays measuring lipase activity were initially used in high-throughput microtitre plate format to enable different saponins at different doses to be screened as potential inhibitors of Lipex 100 L lipase (Novozymes). Effective inhibitors are sought to prevent the lipase hydrolytic activity towards the soil release polymer which is typically observed. […] When using 10 ng/mL lipase ([…]) in this case (this level chosen to ensure that substrate hydrolysis and resultant increase in absorbance measurements falls within the sensitivity of the spectrophotometer) the typical saponin concentration required to inhibit the lipase was around 50-125 μM.

Lipex 100 L lipase [2] = molecular target: T1, Lipex 100 L lipase; assay: Inhibition of Lipex 100 L at fixed dose of 500 μM (Example 7, C12 pNP ester); format: biochemical; settings: fixed dose of 500 μM; for Lipex 100L lipase activity (inhibitory effect of various saponin derivatives): lipase 10 ng/mL final, 50 mM Tris pH 8.5, 25° C., C12 pNP ester 0.1 mM final, lipase-only control 0.0545; for lipase inhibition: Lipex 100 L 10 ng/mL, C12 pNP ester
Experimental: as §1
Various saponins were tested for their ability to inhibit Lipex 100 L lipase (10 ng/mL final). A buffer was used (50 mM Tris pH 8.5) and the experiments were carried out at 25° C. At a fixed dose of 500 μM a number of those tested were effective in lowering the lipase activity. The substrate used for testing as C12 pNP ester (0.1 mM final). These included glycosylated derivatives of oleanolic acid, avenacin, tea tree saponin as well as escin (table 4). Orlistat as a known inhibitor of lipase was also included for comparison (table 4).

Lipex Evity = assay: Biochemical determination of lipase activity with Lipex Evity; settings: lipase 10 μg/L
Experimental: as §1, §2

Resinase HT = assay: Biochemical determination of lipase activity with Resinase HT; settings: lipase 10 μg/L
Experimental: as §1, §2

Novozym 51032 = assay: Biochemical determination of lipase activity with Novozym 51032; settings: lipase 10 μg/L; for % increase in Lipase activity in the presence of escin saponin compared to absence of saponin: Novozym 51032
Experimental: as §1, §2

T1 sequence (O59952 23-291 T253R/N255R): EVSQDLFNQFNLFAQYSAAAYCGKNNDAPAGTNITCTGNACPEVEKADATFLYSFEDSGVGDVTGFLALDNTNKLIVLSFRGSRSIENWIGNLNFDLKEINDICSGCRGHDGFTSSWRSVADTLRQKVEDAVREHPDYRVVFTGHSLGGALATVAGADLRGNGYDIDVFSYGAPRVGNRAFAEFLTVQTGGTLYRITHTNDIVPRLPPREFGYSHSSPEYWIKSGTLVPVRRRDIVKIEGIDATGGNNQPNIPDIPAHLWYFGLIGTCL

CC1(C)CC[C@]2(C(=O)O)CC[C@]3(C)C(=CC[C@@H]4[C@@]5(C)CC[C@H](O)C(C)(C)[C@@H]5CC[C@]43C)[C@@H]2C1 [Oleanolic acid, reference compound] was tested, and the “activation of Lipex 100 L” value (Lipex 100 L lipase [1]) was “small activation” and the “Lipex 100L lipase activity (inhibitory effect of various saponin derivatives)” value (Lipex 100 L lipase [2]) was 0.0842 (±0.0084) abs/min @405 nm.

“oleanolic acid-28-O-tetraglycoside [OA-28 x4Gly]” was tested, and the lipase inhibition (Lipex 100 L lipase [2]) was 80% and the “Lipex 100L lipase activity (inhibitory effect of various saponin derivatives)” value (Lipex 100 L lipase [2]) was 0.0109 (±0.0006) abs/min @405 nm.

In the case of Escin, the “ability to decrease lipase activity (in words)” value (Lipex 100 L lipase [1]; Lipex 100 L, Table 2 screen) is reported as “decrease lipase activity to negligible levels”, the “threshold escin concentration above which lipase activity increased” value (Lipex 100 L lipase [1]; Lipex 100 L, lipase 10 μg/L) is reported as ~0.10 µM and the “% increase in Lipase activity in the presence of escin saponin compared to absence of saponin” value (shortened to “% increase in Lipase activity”) (Lipex 100 L lipase [1]; saponin dose 0.01 μM, lipase 10 μg/L) is reported as −25%. The “% increase in Lipase activity” value (Lipex 100 L lipase [1]; saponin dose 0.1 μM, lipase 10 μg/L) was 25%, the “% increase in Lipase activity” value (Lipex 100 L lipase [1]; saponin dose 0.5 μM, lipase 10 μg/L) was 100% and the “% increase in Lipase activity” value (Lipex 100 L lipase [1]; saponin dose 1 μM, lipase 10 μg/L) was 450%. The “% increase in Lipase activity” value (Lipex 100 L lipase [1]; saponin dose 2.5 μM, lipase 10 μg/L) was 1650%, the “% increase in Lipase activity” value (Lipex 100 L lipase [1]; saponin dose 5 μM, lipase 10 μg/L) was 1775% and the “Lipex 100L activity in the presence of saponins” value (from here on “Lipex 100L activity”) (Lipex 100 L lipase [1]; saponin dose 0.01 μM) was 0.257 Δabs/min @405 nm. The “Lipex 100L activity” value (Lipex 100 L lipase [1]; saponin dose 0.1 μM) was 0.241 Δabs/min @405 nm, the “Lipex 100L activity” value (Lipex 100 L lipase [1]; saponin dose 0.5 μM) was 0.247 Δabs/min @405 nm and the “Lipex 100L activity” value (Lipex 100 L lipase [1]; saponin dose 10 μM) was 0.200 Δabs/min @405 nm. For the same compound, the “Lipex 100L activity” value (Lipex 100 L lipase [1]; saponin dose 25 μM) was 0.204 Δabs/min @405 nm, the “Lipex 100L activity” value (Lipex 100 L lipase [1]; saponin dose 50 μM) was 0.152 Δabs/min @405 nm and the “Lipex 100L activity” value (Lipex 100 L lipase [1]; saponin dose 125 μM) was 0.006 Δabs/min @405 nm. For the same compound, the “Lipex 100L activity” value (Lipex 100 L lipase [1]; saponin dose 250 μM) was 0.001 Δabs/min @405 nm, the “Lipex 100L activity” value (Lipex 100 L lipase [1]; saponin dose 500 μM) was 0.001 Δabs/min @405 nm and the “threshold escin concentration above which lipase activity increased” value (Lipex Evity) was ~0.10 µM. The “% increase in Lipase activity” value (Lipex Evity; saponin dose 0.01 μM) was 0%, the “% increase in Lipase activity” value (Lipex Evity; saponin dose 0.1 μM) was 20% and the “% increase in Lipase activity” value (Lipex Evity; saponin dose 0.5 μM) was 120%. The “% increase in Lipase activity” value (Lipex Evity; saponin dose 1 μM) was 200%, the “% increase in Lipase activity” value (Lipex Evity; saponin dose 2.5 μM) was 240% and the “% increase in Lipase activity” value (Lipex Evity; saponin dose 5 μM) was 260%. For the same compound, the “threshold escin concentration above which lipase activity increased” value (Resinase HT) was ~0.01 µM, the “% increase in Lipase activity” value (Resinase HT; saponin dose 0.01 μM) was 70% and the “% increase in Lipase activity” value (Resinase HT; saponin dose 0.1 μM) was 60%. The “% increase in Lipase activity” value (Resinase HT; saponin dose 0.5 μM) was 170%, the “% increase in Lipase activity” value (Resinase HT; saponin dose 1 μM) was 210% and the “% increase in Lipase activity” value (Resinase HT; saponin dose 2.5 μM) was 140%. The “% increase in Lipase activity” value (Resinase HT; saponin dose 5 μM) was 200%, the “% increase in Lipase activity” value (Novozym 51032; saponin dose 0.01 μM) was 0% and the “% increase in Lipase activity” value (Novozym 51032; saponin dose 0.1 μM) was 50%. The “% increase in Lipase activity” value (Novozym 51032; saponin dose 0.5 μM) was 50%, the “% increase in Lipase activity” value (Novozym 51032; saponin dose 1 μM) was 50% and the “% increase in Lipase activity” value (Novozym 51032; saponin dose 2.5 μM) was 150%. For the same compound, the “% increase in Lipase activity” value (Novozym 51032; saponin dose 5 μM) was 250%, the “threshold escin concentration above which lipase activity increased” value (Novozym 51032; Novozyme 51032) was ~0.10 µM and the “Lipex 100L lipase activity (inhibitory effect of various saponin derivatives)” value (Lipex 100 L lipase [2]) was 0.0039 (±0.0027) abs/min @405 nm.

With “oleanolic acid-28-O-triglycoside [OA-28 x3Gly]” the “activation of Lipex 100 L” value (Lipex 100 L lipase [1]) was “greater than 20 fold”, the lipase inhibition (Lipex 100 L lipase [2]) was “complete inhibition” and the “Lipex 100L lipase activity (inhibitory effect of various saponin derivatives)” value (Lipex 100 L lipase [2]) was −0.0011 (±0.0005) abs/min @405 nm.

CC1(C)[C@@H](O[C@H]2O[C@H](C(=O)O)[C@@H](O)[C@H](O)[C@H]2O[C@@H]2O[C@H](C(=O)O)[C@@H](O)[C@H](O)[C@H]2O)CC[C@]2(C)[C@H]3C(=O)C=C4[C@@H]5C[C@@](C)(C(=O)O)CC[C@]5(C)CC[C@@]4(C)[C@]3(C)CC[C@@H]12 [Glycyrrhizic acid] was tested, and the “Lipex 100L activity” value (Lipex 100 L lipase [1]; saponin dose 0.01 μM) was 0.244 Δabs/min @405 nm, the “Lipex 100L activity” value (Lipex 100 L lipase [1]; saponin dose 0.1 μM) was 0.252 Δabs/min @405 nm and the “Lipex 100L activity” value (Lipex 100 L lipase [1]; saponin dose 0.5 μM) was 0.238 Δabs/min @405 nm. The “Lipex 100L activity” value (Lipex 100 L lipase [1]; saponin dose 10 μM) was 0.221 Δabs/min @405 nm, the “Lipex 100L activity” value (Lipex 100 L lipase [1]; saponin dose 25 μM) was 0.171 Δabs/min @405 nm and the “Lipex 100L activity” value (Lipex 100 L lipase [1]; saponin dose 50 μM) was 0.135 Δabs/min @405 nm. For the same compound, the “Lipex 100L activity” value (Lipex 100 L lipase [1]; saponin dose 125 μM) was 0.116 Δabs/min @405 nm, the “Lipex 100L activity” value (Lipex 100 L lipase [1]; saponin dose 250 μM) was 0.083 Δabs/min @405 nm and the “Lipex 100L activity” value (Lipex 100 L lipase [1]; saponin dose 500 μM) was 0.068 Δabs/min @405 nm.

Avenacin was tested, and the lipase inhibition (Lipex 100 L lipase [2]) was “complete inhibition” and the “Lipex 100L lipase activity (inhibitory effect of various saponin derivatives)” value (Lipex 100 L lipase [2]) was 0.0013 (±0.0006) abs/min @405 nm.

In the case of CCCCCCCCCCC[C@@H](C[C@@H]1OC(=O)[C@H]1CCCCCC)OC(=O)[C@H](CC(C)C)NC=O [Orlistat, reference compound], the “Lipex 100L lipase activity (inhibitory effect of various saponin derivatives)” value (Lipex 100 L lipase [2]) is reported as −0.00032 (±0.0003) abs/min @405 nm.
